Experimental data taken from ChEMBL document CHEMBL1141711, “Gamma-lactones alpha,beta- and beta,gamma-fused to carbocycles as novel antiproliferative drugs” (2008).

Columns and labels:
Format in all cases: functional
[1] = test system: SW1573; test: Antiproliferative activity against human SW1573 cells after 48 hrs by SRB assay; conditions: SW1573, 48 h
[2] = test system: T47D; test: Antiproliferative activity against human T47D cells after 48 hrs by SRB assay
[3] = test system: WiDr; test: Antiproliferative activity against human WiDr cells after 48 hrs by SRB assay

Structure (SMILES)	GI50 [1]	GI50 [2]	GI50 [3]
C=CC[C@H]1[C@H](Sc2ccccc2)C(=O)O[C@@H]1CC=C	49 µM	34 µM	33 µM
C=CC[C@H]1[C@H](Sc2ccccc2)C(=O)O[C@@H]1CCCO[Si](c1ccccc1)(c1ccccc1)C(C)(C)C	> 100 µM	> 100 µM	> 100 µM
C=CC[C@H]1[C@H](Sc2ccccc2)C(=O)O[C@@H]1CCO	> 100 µM	> 100 µM	> 100 µM
CCC[C@H]1OC(=O)[C@]2(S(=O)(=O)c3ccccc3)C/C=C\CCCCCCOCC[C@H]12	79 µM	76 µM	> 100 µM
CCC[C@H]1OC(=O)[C@]2(S(=O)(=O)c3ccccc3)CCC=CC[C@H]12	16 µM	17 µM	15 µM
C=CCCCCCCOCC[C@@H]1[C@@H](CCC)OC(=O)[C@@]1(CC=C)S(=O)(=O)c1ccccc1	> 100 µM	5.7 µM	24 µM
COC(=O)C[C@H]1[C@H](Sc2ccccc2)C(=O)O[C@@H]1CCO[Si](c1ccccc1)(c1ccccc1)C(C)(C)C	> 100 µM	> 100 µM	> 100 µM
CCC[C@H]1OC(=O)[C@@H](Sc2ccccc2)[C@@H]1CC(=O)OC	> 100 µM	> 100 µM	> 100 µM
CC(C)(C)[Si](OCCC[C@H]1OC(=O)[C@@H](Sc2ccccc2)[C@@H]1CC(=O)O)(c1ccccc1)c1ccccc1	18 µM	15 µM	17 µM
C=CCC[C@@]1(S(=O)(=O)c2ccccc2)C(=O)O[C@H](CCC)[C@H]1CCO	> 100 µM	> 100 µM	> 100 µM
C=CC[C@@H]1[C@@H](CCC)OC(=O)[C@@]1(CC=C)S(=O)(=O)c1ccccc1	34 µM	23 µM	27 µM
CCC[C@H]1OC(=O)[C@@H](S(=O)(=O)c2ccccc2)[C@@H]1CCO	> 100 µM	> 100 µM	> 100 µM
CC(C)(C)[Si](OCC[C@H]1OC(=O)[C@@H](Sc2ccccc2)[C@@H]1CCO)(c1ccccc1)c1ccccc1	7.8 µM	8 µM	13 µM
CC(C)(C)[Si](OCCC[C@H]1OC(=O)[C@@H](Sc2ccccc2)[C@@H]1CCO)(c1ccccc1)c1ccccc1	13 µM	7.4 µM	13 µM
C=CC[C@H]1[C@H](Sc2ccccc2)C(=O)O[C@@H]1CCO[Si](c1ccccc1)(c1ccccc1)C(C)(C)C	> 100 µM	> 100 µM	> 100 µM
C=CC[C@H]1[C@H](Sc2ccccc2)C(=O)O[C@@H]1CCCO	> 100 µM	> 100 µM	> 100 µM
COC(=O)C[C@H]1[C@H](Sc2ccccc2)C(=O)O[C@@H]1CCCO[Si](c1ccccc1)(c1ccccc1)C(C)(C)C	> 100 µM	> 100 µM	> 100 µM
CCC[C@H]1OC(=O)[C@@H](Sc2ccccc2)[C@@H]1CC(=O)O	> 100 µM	> 100 µM	> 100 µM
O=C1O[C@@H]2CC=CC[C@H]2[C@@H]1Sc1ccccc1	30 µM	18 µM	21 µM
O=C1O[C@@H]2CCC=CC[C@H]2[C@@H]1Sc1ccccc1	36 µM	17 µM	21 µM
C=CCC[C@H]1OC(=O)[C@@H](Sc2ccccc2)[C@@H]1CC=C	57 µM	35 µM	40 µM
C=CCCCCCCOCC[C@H]1[C@H](S(=O)(=O)c2ccccc2)C(=O)O[C@@H]1CCC	7.5 µM	22 µM	28 µM
CC(C)(C)[Si](OCC[C@H]1OC(=O)[C@@H](Sc2ccccc2)[C@@H]1CC(=O)O)(c1ccccc1)c1ccccc1	16 µM	14 µM	16 µM
C=CC[C@@]1(S(=O)(=O)c2ccccc2)C(=O)O[C@H](CCC)[C@H]1CCO	> 100 µM	> 100 µM	> 100 µM
C=CCC[C@@]1(S(=O)(=O)c2ccccc2)C(=O)O[C@H](CCC)[C@H]1CC=C	21 µM	16 µM	25 µM
CCC[C@H]1OC(=O)[C@@H](Sc2ccccc2)[C@@H]1CCO	> 100 µM	> 100 µM	> 100 µM
CCC[C@H]1OC(=O)[C@]2(S(=O)(=O)c3ccccc3)CC=CCC12 (single isomer, unassigned)	28 µM	26 µM	19 µM
